Each block holds one compound with its values, some of them ahead of it.
How the values were obtained:
NCI-H1993 (c-MET amp) = experiment: In vitro growth inhibition (GI50), NCI-H1993; format: cell-based; conditions: Homo sapiens, H1993, cMET Amp+
From the text: (§1) Tumor cell line is an effective cell model for studying the inhibition of tumor cell growth or proliferation in vitro. In the present invention, a representative tumor cell line was selected to determine the cell growth inhibition activity of the present compound. All cell lines used were from ATCC, DSMZ, and the Cell Bank of the Chinese Academy of Sciences. Cell culture conditions and methods were in accordance with the requirements of each cell line. Cells were subcultured in vitro for no more than 3 passages each time, and as required, single-clone purification and identification of cell lines could be carried out.
(§2) The cell culture media used were RPMI1640 (Gibco), MEM (Gibco), McCOY'S5A (Gibco), and IMDM (Gibco). The complete medium was prepared by supplement with 5˜20% fetal calf serum (Gibco), 1% double-antibiotics (10000 units/mL penicillin and 10000 units/mL), 2 mM glutamine or 1 mM sodium pyruvate, respectively.
The human gastric cancer cell line MKN-45 (c-MET amp, ATCC) and the non-small cell lung cancer cell line NCI-H1993 (c-MET amp, ATCC) were cultured in complete medium comprising 1×RPMI1640 and 10% FBS, respectively.
(§3) Adherent cells were digested with 0.25% pancreatin-EDTA (Gibco). The suspension cells were collected by centrifugation. The supernatant was discarded and the cell pellet was resuspended and counted. Different cell concentrations (5˜10×10^4 cells/mL) were prepared according to the growth cycle of each cell line and then seeded on a 96-well plate (Corning), 100 μL/well. The cells were incubated overnight at 37° C., 5% CO2. The compounds were added to the cells on the second day with 2 wells in parallel. The final concentration of organic solvent shall not exceed 1%. The cells were continually incubated for 3 to 5 days, and then subjected to MTT assay.
(§4) The compound of the present invention and the control compound were dissolved in DMSO (Sigma) respectively, with the purity of more than 98%. The compound was stored in a concentration of 10 mM at −20° C. and diluted to 2- or 10-fold series prior to use.
(§5) Dojindo CCK8 reagent kit was used as MTT assay. THERMO […] FC meter was used as microplate reader.
(§6) For adherent cells, culture medium was removed and immediately replaced with the fresh prepared medium which contains 10% CCK8 reagent (100 μL/well). For the suspension cells, CCK8 was directly added to 10% of the final concentration. The cells were continually incubated for 1˜4 h. When a dark yellow color could be observed in the solvent control wells, the absorbance value at OD450 nm was measured and the cell growth rate was calculated according to the following formula: Cell Growth Rate (%)=100*(T−T0)/(C−T0) T=optical density of drug treatment cell well—optical density of blank control well; T0=optical density of cell well before drug treatment—optical density of blank control well; C=optical density of cell well of solvent control group—optical density of blank control well. The concentration value of 50% inhibition of cell growth (GI50) was calculated according to the drug concentration and cell growth rate curve. The experiment was independently repeated 1˜3 times, and subject to biological statistical analysis. 4. Experimental Results
(§7) Tumor cell growth inhibition test was performed by selecting representative compounds (compounds 4, 11, 12, 16, 27, 68, 71, 77, 79, 89 and 116 of the present invention). The initial concentration of the compound was 5,000 nM, then it was serially diluted by 2-fold or 10-fold to 0.01 nM. The GI50 value of each test compound was calculated according to the GI50 assay and calculation method. The experiments were repeated 1 to 3 times, and data were subjected to biological statistical analysis.

[1] = system: SH-SY5Y (expressing ALK F1174L mutant protein); experiment: In vitro growth inhibition (GI50), SH-SY5Y; format: cell-based; conditions: Homo sapiens
From the text: as §1, §2
Human non-small cell lung cancer cell line NCI-H2228 (expressing EML4-ALK fusion gene, ATCC) and human anaplastic large cell lymphoma cell line Karpas-299 (expressing NPM-ALK fusion gene, ATCC) were cultured in complete medium comprising 1×RPMI1640 (10% FBS), respectively. Neuroblastoma cell line SH-SY5Y (expressing ALK F1174L mutant protein, Shanghai Cell Bank, Chinese Academy of Sciences) was cultured in MEM complete medium (1×MEM, 10% FBS, 1% NEAA, 1 mM sodium pyruvate).
as §3, §4, §5, §6, §7

[2] = system: MV4-11 cell Bab/c nude mouse tumor model; experiment: In vivo tumor growth inhibition experiment; conditions: for effect on body weight of nude mice: compared with the solvent control group
Protocol: Xenotransplantation in immunodeficient mice is an effective model for testing in vivo antitumor activity of compounds in animals. Bab/c immunodeficient mice are one of the most commonly used tumor cell xenografts. […] Log-phase MV4-11 cells were collected in a 50 ml of centrifuge tube (Corning), centrifuged at 1,700 rpm for 3 minutes, and the supernatant was discarded. Cells were suspended in a 50 ml 1×RPMI 1640 serum-free medium, and centrifuged, the supernatant was discarded and resuspension was performed. The cells were counted (Countess® Automated Cell Counting Apparatus, Invitrogen), prepared into […], placed on ice, and inoculated subcutaneously with 10×10^6 (0.2 ml) to the right back of 6-8-week female Bab/c nude mice (about 20 g in weight) (purchased from Shanghai Sippr-BK Experimental Animal Co., Ltd., Animal Center of Shanghai University of Traditional Chinese Medicine, approved by Ethical Committee of Shanghai University of Traditional Chinese Medicine). When the tumor grew to a size of 100-200 mm^3, animals were randomly grouped and earmarked and weighed. The treatment group consisted of 3 to 6 nude mice in each group. Drugs were prepared into different concentrations of milky suspension with a solvent PTP solution (30% polyethylene glycol 400, 0.5% Tween-80, 2.5% propylene glycol). Animals were given by oral gavage continuously at a concentration of 0.1 ml/10 g body weight, with a dose range of 0.1-200 mg/kg (the purity of the test compound of the present invention was 99% or more, and the proportion of single impurity was not more than 0.1%). In the control group, 3 to 6 nude mice in each group were given the same volume (0.1 ml/10 g body weight) of solvent PTP solution, and the tumors were measured 3 to 4 times per week. When the average tumor volume in the control group reached 1500 mm^3, or on the 28th day of administration, the experiment ended, then the tumor was weighed and subjected to molecular pathology assay.
The tumor volume was calculated as V=½a×b^2, where a is the length and b is the width. The relative tumor volume (RTV) was calculated based on the measured results and the formula was RTV=Vt/V0, where V0 is the measured tumor volume when administered in divided cages (i.e., do), and Vt is the tumor volume at each measurement.

GI50 (NCI-H1993 (c-MET amp)): > 2.5 µM
GI50 [1]: > 2.5 µM
Compound: CC(C)(C)c1cc(NC(=O)Nc2ccc(-n3cnc4cc(O)ccc43)cc2)no1 [Compound 4, 1-(5-tert-butyl-isoxazol-3-yl)-3-[4-(5-hydroxy-benzimidazol-1-yl)-phenyl]-urea]

GI50 (NCI-H1993 (c-MET amp)): > 2.5 µM
GI50 [1]: > 2.5 µM
Compound: CC(C)(C)c1cc(NC(=O)Nc2ccc(-n3cnc4cc(OCCO)ccc43)cc2)no1 [Compound 11, 1-(5-tert-butyl-isoxazol-3-yl)-3-{4-[5-(2-hydroxy-ethoxyl)-benzimidazol-1-yl]-phenyl]-urea]

GI50 (NCI-H1993 (c-MET amp)): > 2.5 µM
GI50 [1]: > 2.5 µM
Compound: CC(C)(C)c1cc(NC(=O)Nc2ccc(-n3cnc4cc(OCCN5CCOCC5)ccc43)cc2)no1 [Compound 16, 1-(5-tert-butyl-isoxazol-3-yl)-3-{4-[5-(2-morpholin-4-yl-ethoxyl)-benzimidazol-1-yl]-phenyl}-urea]
Tumor Inhibition Rate (%) ([2]; Dose 2.5 mg/kg, Day 6): 82.4%
Tumor Inhibition Rate (%) ([2]; Dose 2.5 mg/kg, Day 10): 96.8%
Tumor Inhibition Rate (%) ([2]; Dose 2.5 mg/kg, Day 15): 100%
Tumor Inhibition Rate (%) ([2]; Dose 2.5 mg/kg, Day 20): 100%
tumor outcome ([2]; drug dose 2.5 mg/kg, 15th day of administration): tumor disappears completely
effect on body weight of nude mice ([2]; drug dose 2.5 mg/kg): no significant effect

GI50 (NCI-H1993 (c-MET amp)): > 2.5 µM
GI50 [1]: > 2.5 µM
Compound: CC(C)(C)c1cc(NC(=O)Nc2ccc(-n3cnc4ccc(OCCN5CCOCC5)cc43)cc2)no1 [Compound 27, 1-(5-tert-butyl-isoxazol-3-yl)-3-{4-[6-(2morpholin-4-yl-ethoxyl)-benzimidazol-1-yl]-phenyl}-urea]

GI50 (NCI-H1993 (c-MET amp)): > 2.5 µM
GI50 [1]: > 2.5 µM
Compound: CC(C)(C)c1cc(NC(=O)Nc2ccc(-n3cnc4ccccc43)cc2)[nH]n1 [Compound 68, 1-(4-benzimidazol-1-yl-phenyl)-3-(5-tert-butyl-2H-pyrazol-3-yl)-urea]
Tumor Inhibition Rate (%) ([2]; Dose 2.5 mg/kg, Day 6): 14.6%
Tumor Inhibition Rate (%) ([2]; Dose 2.5 mg/kg, Day 10): 16.2%
Tumor Inhibition Rate (%) ([2]; Dose 2.5 mg/kg, Day 15): 17.8%
Tumor Inhibition Rate (%) ([2]; Dose 2.5 mg/kg, Day 20): 37.5%
Tumor Inhibition Rate (%) ([2]; Dose 2.5 mg/kg, Day 28): 35.3%
Tumor Inhibition Rate (%) ([2]; Dose 5 mg/kg, Day 6): 67.9%
Tumor Inhibition Rate (%) ([2]; Dose 5 mg/kg, Day 10): 71.6%
Tumor Inhibition Rate (%) ([2]; Dose 5 mg/kg, Day 15): 58.5%
Tumor Inhibition Rate (%) ([2]; Dose 5 mg/kg, Day 20): 50.1%
Tumor Inhibition Rate (%) ([2]; Dose 5 mg/kg, Day 28): 62.5%
Tumor Inhibition Rate (%) ([2]; Dose 10 mg/kg, Day 6): 68.9%
Tumor Inhibition Rate (%) ([2]; Dose 10 mg/kg, Day 10): 81.7%
Tumor Inhibition Rate (%) ([2]; Dose 10 mg/kg, Day 15): 90.2%
Tumor Inhibition Rate (%) ([2]; Dose 10 mg/kg, Day 20): 94.8%
Tumor Inhibition Rate (%) ([2]; Dose 10 mg/kg, Day 28): 98.7%
Tumor Inhibition Rate (%) ([2]; Dose 25 mg/kg, Day 6): 86.0%
Tumor Inhibition Rate (%) ([2]; Dose 25 mg/kg, Day 10): 92.5%
Tumor Inhibition Rate (%) ([2]; Dose 25 mg/kg, Day 15): 93.4%
Tumor Inhibition Rate (%) ([2]; Dose 25 mg/kg, Day 20): 96.7%
Tumor Inhibition Rate (%) ([2]; Dose 25 mg/kg, Day 28): 100.0%
Tumor Inhibition Rate (%) ([2]; Dose 50 mg/kg, Day 6): 92.8%
Tumor Inhibition Rate (%) ([2]; Dose 50 mg/kg, Day 10): 98.7%
Tumor Inhibition Rate (%) ([2]; Dose 50 mg/kg, Day 15): 100.0%
Tumor Inhibition Rate (%) ([2]; Dose 100 mg/kg, Day 6): 94.2%
Tumor Inhibition Rate (%) ([2]; Dose 100 mg/kg, Day 10): 100.0%
Tumor Inhibition Rate (%) ([2]; Dose 100 mg/kg, Day 15): 100.0%
Tumor Inhibition Rate (%) ([2]; Dose 200 mg/kg, Day 6): 98.9%
Tumor Inhibition Rate (%) ([2]; Dose 200 mg/kg, Day 10): 100.0%
Tumor Inhibition Rate (%) ([2]; Dose 200 mg/kg, Day 15): 100.0%
effect on body weight of nude mice ([2]; dose ≤25 mg/kg): no significant effect
inhibition rate of tumor growth ([2]; dose ≥25 mg/kg, oral gavage, 6th day after administration): more than 80%
tumor outcome ([2]; dose ≥25 mg/kg, oral gavage, 28th day): tumor disappears completely

GI50 (NCI-H1993 (c-MET amp)): > 2.5 µM
GI50 [1]: > 2.5 µM
Compound: CC(C)(C)c1cc(NC(=O)Nc2ccc(-n3cnc4cc(OCCO)ccc43)cc2)[nH]n1 [Compound 79, 1-(5-tert-butyl-2H-pyrazol-3-yl)-3-{4-[5-(2-hydroxy-ethoxyl)-benzimidazol-1-yl]-phenyl]urea]

GI50 (NCI-H1993 (c-MET amp)): > 2.5 µM
GI50 [1]: > 2.5 µM
Compound: CC(C)(C)c1cc(N)n(C(=O)Nc2ccc(-n3cnc4ccccc43)cc2)n1 [Compound 116, 5-amino-3-tert-butyl-pyrazol-1-carboxylic acid (4-benzimidazol-1-yl-phenyl)-amide]

— patent publication US10647680B2, “Urea compound, preparation method therefor and medical use thereof” (Ancureall Pharmaceutical (Shanghai) Co., Ltd., priority 2016, dated 2020)
